Measurements reported in patent US20200170256A1, “Amonia Based Piscicide” (priority 2018, published 2020).

Assays:
[1] = tested on: mitochondrial complex I; settings: 2011 NIH study; cited from earlier work
[2] = tested on: fathead minnows; assay: fathead minnows exposed to the piscicide in 100-gallon laboratory tanks (effective amount of ammonium chloride); format: in vivo
Protocol: During each replicate trial, ten fathead minnows were exposed to the pisticide over a four hour period in 100-gallon laboratory tanks at 20° C.

| SMILES | role in inhibiting mitochondrial complex I among 31 tested piscicides [1] | effective amount of ammonium chloride alone (approximate same effect) [2] |
| --- | --- | --- |
| C=C(C)[C@H]1Cc2c(ccc3c2O[C@@H]2COc4cc(OC)c(OC)cc4[C@@H]2C3=O)O1 [Rotenone] | greatest role in inhibiting mitochondrial complex I |  |
| Cl.N [ammonium chloride] |  | 0.6-0.8 grams per gallon |
